Experimental data from patent publication US20070088086A1, “Method of using synthetic L-Se-methylselenocysteine as a nutriceutical and a method of its synthesis” (PharmaSe, Incorporated, priority 1999, published 2007).

What was measured:
[1] = In vitro lucigenin chemiluminescence (CL) assay of superoxide generation in the presence of GSH
Protocol: Methylseleninic acid (CH3SeOOH) was a dissolved in distilled water. Using a Rannin micropipette, aliquots were added directly to 1.0 ml of a buffered cocktail solution. The buffered cocktail solution was comprised of lucigenin (20 μg/ml), reduced glutathione (GSH) (4 mg/ml), and either sodium borate (0.05M) or sodium phosphate (0.05M), all purchased from Sigma Chemical Co. Two different buffered cocktail solutions were employed: the cocktail containing sodium borate was used for experiments at pH 9.2, which is optimum for the generation, detection and quenching of selenium catalyzed superoxide; and the cocktail containing sodium phosphate was used for experiments at pH 7.4, which is reflective of physiological conditions. One ml of the cocktail solution was added to a 10×50 mm polypropylene tube for use in the chemiluminescence (CL) assay. Chemiluminescence, using lucigenin as the detector of superoxide, was counted in repetitive integrated 30 second increments over time using a Los Alamos Diagnostics (Model 535) chemiluminometer, to which was attached a LKB Model 2209 circulating water bath that held the tube at 36° C. All chemical test assays and controls were performed by the addition of methylseleninic acid directly to the luminometer test tube in the counting chamber. Superoxide dismutase, SOD, purchased from Sigma Chemical Co., was added to the test tube prior to the addition of the methylseleninic acid and used to quench the chemiluminescent reactions.
The complete chemiluminescence cocktail (containing buffer, lucigenin and GSH) produced very low, yet detectable amounts of background chemiluminescence at both a pH of 9.2 and 7.4. This was most likely due to the ambient spontaneous oxidation of GSH, but was not significant to the tests performed. […] Thus the chemiluminescence produced and quantitated in these assays can be attributable to the generation of superoxide. […] The chemiluminescence generated by selenoate catalysis may be used to quantitatively approximate the amount of catalytic selenium present.

[2] = system: human cancer cells; test: Toxicity to cancer cells, same protocol as normal cells (FIG. 2); format: cell-based; details: compared with selenomethionine
Protocol: FIG. 2 is a graphic comparison showing that L-Se-methylselenocysteine is more toxic to human cancer cells than L-selenomethionine.
(§1) FIG. 1 illustrates a comparison between L-Se-methylselenocysteine and L-selenomethionine, and their effect on the growth of normal rabbit fibroblasts. Tests were performed at varying concentrations of L-Se-methylselenocysteine and L-selenomethionine over a three-day period. The amount of cellular growth, as measured by DNA synthesis, that could be stimulated by calf serum at the end of this period was assessed by the addition of tritiated thymidine.

[3] = system: normal rabbit fibroblasts; test: Growth of normal rabbit fibroblasts, DNA synthesis by tritiated thymidine (FIG. 1); format: cell-based; details: three-day period, compared with selenomethionine
Protocol: FIG. 1 is a graphic comparison between L-Se-methylselenocysteine and L-selenomethionine and their effect on the growth of normal rabbit fibroblasts.
as §1

[4] = Acute toxicity in a mouse (FIG. 3); details: in vivo
Protocol: FIG. 3 is a graphic comparison showing the acute toxicity of L-Se-methylselenocysteine in a mouse versus the acute toxicity of selenomethionine in rats.
as §1

[5] = Solubility of the obtained amino acid in solvents; format: physicochemical
Excerpt: It is contemplated that ion exchange chromatography may be used to purify the amino acid. It is also possible that, on a larger scale, L-Se-methylselenocysteine may be crystallized. […] Accordingly, ethanol may be one likely crystallization solvent.

[6] = system: cells in culture; details: cited from earlier work
[7] = system: lung, cholorectal and prostate cancer; details: dietary supplement up to 200 μg/Se/day more than that found in foods; cited from earlier work
[8] = system: colon carcinogenisis; details: dietary 1.0-2.0 ppm; cited from earlier work
[9] = system: rats; details: acute toxicity, reported (Spallholz, 1994); cited from earlier work
[10] = selenol or thiol group; cited from earlier work
[11] = system: mammary tumors; details: 1 and 2 ppm in rats' diets; cited from earlier work
[12] = system: pre-neoplastic and tumor cell lines; details: cited from earlier work

C[Se]C[C@H](N)C(=O)O [L-Se-methylselenocysteine]
superoxide generation / chemiluminescence in the in vitro CL assay ([1]; pH not stated): do not generate superoxide
toxicity to cancer cells [2]: more toxic to cancer cells
toxicity to normal cells (growth, DNA synthesis) [3]: less toxic to normal cells
LD50 [4]: 8 mg/kg
solubility ([5]; in ethanol): sparingly soluble
solubility ([5]; in methanol): fairly soluble
solubility ([5]; in water): soluble

O=[Se](O)O [selenite]
induction of apoptosis [6]: induces DNA ladders and apoptosis

C[Se]CC[C@H](N)C(=O)O [L-selenomethionine]
cancer incidence in humans [7]: reduce the incidence of lung, cholorectal and prostate cancer
effect on the promotional stages of rat colon carcinogenisis [8]: inhibitory effect
superoxide generation / chemiluminescence in the in vitro CL assay ([1]; pH not stated): do not generate superoxide
LD50 [9]: 4.25 mg/kg

N[C@@H](CS)C(=O)O [cysteine]
pKa [10]: 8-9

C[Se]C[C@H](N)C(=O)O (racemic) [Se-methylselenocysteine]
appearance of palpable mammary tumors [11]: decreases the appearance of palpable mammary tumors
anticancer effects (cell morphology, cell number, DNA strand breaks) [12]: beneficial anticancer effects

C[SeH] [methylselenol]
superoxide generation / chemiluminescence in the in vitro CL assay ([1]; pH not stated): very active redox compound producing superoxide

C[Se](=O)O [methylseleninic acid, Methylseleninic acid]
lowest level at which chemiluminescence (superoxide generation) could be detected ([1]; FIG. 4, GSH reduction): 0.56 nanomoles of selenium
quenching of chemiluminescence by SOD ([1]; pH 7.4, 100 units of SOD): quenched most of the chemiluminescence activity
chemiluminescence ([1]; pH 7.4, complete cocktail with GSH and lucigenin): produced chemiluminescence
quenching of chemiluminescence by SOD ([1]; pH 9.2, 100 units of SOD added prior): quenched an initial burst of chemiluminescence activity
superoxide generation (chemiluminescence) ([1]; pH 9.2, complete cocktail with GSH and lucigenin): generated superoxide
chemiluminescence with lucigenin alone ([1]; without GSH, pH 9.2 and 7.4): produced no additional chemiluminescence
chemiluminescence with GSH alone ([1]; without lucigenin, pH 9.2 and 7.4): produced no additional chemiluminescence

N[C@@H](C[SeH])C(=O)O [selenocysteine]
pKa [10]: 5.25

CS [methylthiol]
quenching of chemiluminescence by SOD ([1]; pH not stated): SOD did not significantly quench the chemiluminescence
superoxide generation / chemiluminescence in the in vitro CL assay ([1]; pH not stated): only a fraction of the amount of chemiluminescence as compared to methylselenol
